Drawing on US20250171431A1, “HETEROCYCLIC INHIBITORS OF IGF-1R FOR TREATMENT OF DISEASE” (HORIZON THERAPEUTICS IRELAND DAC, priority 2023, published 2025), this text covers IC50 for 13 molecules.

This test concerns the target IGF-1R (Homo sapiens (Human), UniProt P08069). The test is described as follows: Example B-1: IGF-1R Assay (PC3 cells, IGF1 stimulation, AlphaLISA). The note with it: 200 ng/mL IGF1 stimulation, read-out: Biological Activity against IGF-1R IC50. In kind it is cell-based. An outline of the steps: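 Readout is AlphaLISA signal from lysed PC3 cells, expressed as % inhibition versus vehicle and EC80 controls and banded by IC50. Before lysis, the cells were starved of serum for 2 h, exposed to 3× serially diluted compound for 2 h, and stimulated for 30 min with 200 ng/mL IGF1 (final).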
In general terms: Alpha assays give light when donor and acceptor beads are brought close together.

IGF-1R, sequence (P08069 31-1367): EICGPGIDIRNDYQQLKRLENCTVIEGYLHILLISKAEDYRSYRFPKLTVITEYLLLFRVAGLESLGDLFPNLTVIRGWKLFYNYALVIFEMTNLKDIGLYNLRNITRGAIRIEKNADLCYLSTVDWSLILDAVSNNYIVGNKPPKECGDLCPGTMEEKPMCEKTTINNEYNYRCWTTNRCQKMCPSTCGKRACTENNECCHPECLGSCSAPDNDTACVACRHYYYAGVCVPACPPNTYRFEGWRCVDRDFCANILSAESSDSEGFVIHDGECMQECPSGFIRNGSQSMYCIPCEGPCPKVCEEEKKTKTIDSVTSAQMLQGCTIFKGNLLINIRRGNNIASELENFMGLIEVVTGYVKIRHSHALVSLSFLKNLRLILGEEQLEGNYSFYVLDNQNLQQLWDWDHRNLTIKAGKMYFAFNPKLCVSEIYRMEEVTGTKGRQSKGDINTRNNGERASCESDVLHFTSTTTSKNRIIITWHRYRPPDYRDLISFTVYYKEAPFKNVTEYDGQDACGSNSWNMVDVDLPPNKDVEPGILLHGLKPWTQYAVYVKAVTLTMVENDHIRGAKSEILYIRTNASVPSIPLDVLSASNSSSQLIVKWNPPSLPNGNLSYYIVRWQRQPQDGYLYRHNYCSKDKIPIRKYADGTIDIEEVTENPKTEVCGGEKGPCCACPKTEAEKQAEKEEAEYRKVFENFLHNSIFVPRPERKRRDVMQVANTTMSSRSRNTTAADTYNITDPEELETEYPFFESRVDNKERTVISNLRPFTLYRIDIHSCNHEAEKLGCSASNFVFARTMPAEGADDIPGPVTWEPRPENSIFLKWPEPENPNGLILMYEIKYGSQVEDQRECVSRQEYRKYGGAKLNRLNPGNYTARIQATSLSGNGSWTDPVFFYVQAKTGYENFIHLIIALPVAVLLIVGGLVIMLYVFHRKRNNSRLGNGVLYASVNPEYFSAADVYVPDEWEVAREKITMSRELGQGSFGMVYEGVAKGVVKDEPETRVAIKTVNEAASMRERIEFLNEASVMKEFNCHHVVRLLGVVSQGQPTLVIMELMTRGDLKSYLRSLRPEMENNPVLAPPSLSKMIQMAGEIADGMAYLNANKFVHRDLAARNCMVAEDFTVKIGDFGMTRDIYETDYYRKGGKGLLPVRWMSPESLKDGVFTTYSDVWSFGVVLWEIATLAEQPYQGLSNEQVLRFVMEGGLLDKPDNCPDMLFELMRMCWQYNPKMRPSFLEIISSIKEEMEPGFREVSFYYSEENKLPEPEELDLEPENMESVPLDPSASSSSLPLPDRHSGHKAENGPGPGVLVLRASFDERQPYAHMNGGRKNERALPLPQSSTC

In general, IC50 refers to the point on the concentration scale where inhibition reaches its midpoint. As to `COc1cc(Nc2nccc(Nc3cnc4ccc(C#N)cc4c3)n2)ccc1O[C@H]1C[C@@H](N(C)C)C1` [Compound 313, 3-(2-{3-methoxy-4-[(1s,3s)-3-(dimethylamino)cyclobutoxy]phenylamino}-4-pyrimidinylamino)-6-quinolinecarbonitrile], the IC50 was no more than 0.5 µM. As for `COc1cc(Nc2nccc(Nc3cnc4[nH]ncc4c3)n2)ccc1O[C@H]1C[C@@H](N(C)C)C1` [Compound 300, 2-{3-methoxy-4-[(1s,3s)-3-(dimethylamino)cyclobutoxy]phenylamino}-4-(1H-1,2,7-triazainden-5-ylamino)pyrimidine], the figure is 0.5 to 2 µM. As for `COc1cc(Nc2nccc(Nc3cnc4c(cnn4C)c3)n2)ccc1O[C@H]1C[C@@H](N(C)C)C1` [Compound 280, 2-{3-methoxy-4-[(1s,3s)-3-(dimethylamino)cyclobutoxy]phenylamino}-4-(1-methyl-1H-1,2,7-triazainden-5-ylamino)pyrimidine], the figure is no more than 0.5 µM. Regarding `O=S1(=O)CCN([C@H]2C[C@H](Oc3ccc(Nc4nccc(Nc5cnc6c(c5)OCCO6)n4)cc3)C2)CC1` [Compound 348], the IC50 is no more than 0.5 µM. For `COc1cc(N2CCN(C3COC3)CC2)ncc1Nc1nccc(Nc2cc3cccc(F)c3[nH]c2=O)n1` [Compound 225, 8-fluoro-3-(2-{4-methoxy-6-[4-(3-oxetanyl)-1-piperazinyl]-3-pyridylamino}-4-pyrimidinylamino)-1,2-dihydro-2-quinolinone], the half-inhibitory concentration (IC50) was no more than 0.5 µM.

As for `COc1cc(N2CCN(C)CC2)ccc1Nc1nccc(Nc2cnc3c(Cl)cccc3c2)n1` [Compound 467, 4-(8-chloro-3-quinolylamino)-2-[2-methoxy-4-(4-methyl-1-piperazinyl)phenylamino] pyrimidine], the half-inhibitory concentration (IC50) was no more than 0.5 µM.

With `COc1cc(Nc2nccc(Nc3cnc4c(c3)CCC3(CCCC3)C4)n2)ccc1O[C@H]1C[C@H](N(C)C)C1` [Compound 78, 4-(6′,8′-dihydro-5′H-spiro[cyclopentane-1,7′-quinolin]-3′-ylamino)-2-{3-methoxy-4-[(1r,3r)-3-(dimethylamino)cyclobutoxy]phenylamino}pyrimidine], the IC50 was no more than 0.5 µM. The value for `Fc1cnc(Nc2ccc(OCCCN3CCCCC3)cc2)nc1Nc1cnc2ccccc2c1` [Compound 432, 5-fluoro-2-[p-(3-piperidinopropoxy)phenylamino]-4-(3-quinolylamino)pyrimidine] was no more than 0.5 µM. As for `CN(C)[C@H]1C[C@H](Oc2ccc(Nc3nccc(Nc4cnc5c(c4)CCCC5)n3)cc2)C1` [Compound 315, 2-{p-[(1r,3r)-3-(dimethylamino)cyclobutoxy]phenylamino}-4-(5,6,7,8-tetrahydro-3-quinolylamino)pyrimidine], the figure is no more than 0.5 µM; as for `COc1cc(Nc2ncc(F)c(Nc3cc4ccccc4nc3C(N)=O)n2)cnc1O[C@H]1C[C@@H](N(C)C)C1` [Compound 255, 3-(5-fluoro-2-{5-methoxy-6-[(1s,3s)-3-(dimethylamino)cyclobutoxy]-3-pyridylamino}-4-pyrimidinylamino)-2-quinolinecarboxamide], no more than 0.5 µM; as for `COc1cc(Nc2nccc(Nc3cnc4c(c3)CCC4)n2)ccc1OCCCN1CCCCC1` [Compound 194, 4-(4-aza-6-indanylamino)-2-[3-methoxy-4-(3-piperidinopropoxy)phenylamino] pyrimidine], no more than 0.5 µM. The value for `FC(F)(F)c1ccc2cc(Nc3ccnc(Nc4ccc(OCCCN5CCOCC5)cc4)n3)cnc2c1` [Compound 395, 2-[p-(3-morpholinopropoxy)phenylamino]-4-[7-(trifluoromethyl)-3-quinolylamino]pyrimidine] was 2 to 10 µM; that for `COc1cc(Nc2nccc(Nc3cnc4ccccc4c3)n2)ccc1N1CCC(N2CCN(C)CC2)CC1` [Compound 2, 2-{3-methoxy-4-[4-(4-methyl-1-piperazinyl)-1-piperidyl]phenylamino}-4-(3-quinolylamino)pyrimidine] was no more than 0.5 µM.
